Target: T1, RORγ-LBD (Homo sapiens, UniProt P51449)
T1 construct: made in house; host or cells: SF9 cells (baculovirus)
T1 sequence (P51449 269-508 limits assumed): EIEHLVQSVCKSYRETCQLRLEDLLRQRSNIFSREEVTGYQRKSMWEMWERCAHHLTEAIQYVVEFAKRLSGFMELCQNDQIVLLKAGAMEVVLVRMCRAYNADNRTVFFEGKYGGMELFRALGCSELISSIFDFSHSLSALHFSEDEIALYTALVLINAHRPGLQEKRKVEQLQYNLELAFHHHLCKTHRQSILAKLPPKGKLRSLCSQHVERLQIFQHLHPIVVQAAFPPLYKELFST
Test: RORγ-Ligand Binding Domain (LBD) TR-FRET Assay;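 as to TR-FRET Assay Max Response: 665/615 nm ratio relative to signal without ursolic acid or compound set at 100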
Type: biochemical
Procedure: Assay procedures and results are described below.
HIS-tagged RORγ-LBD protein was expressed in SF9 cells using a baculovirus expression system. The lysate was diluted in assay buffer (50 mM Tris pH 7.0, 50 mM KCl, 1 mM EDTA, 0.1 mM DTT, 0.01% BSA) to obtain RORγ-LBD final concentration of ˜3 nM in a 384-well assay plate (need to titrate for each batch of protein).
A stock of biotinylated-LXXLL peptide from coactivator SRC1 (Biotin-[…]) was prepared in assay buffer and added to each well (200 nM final concentration). […] RORγ antagonist ursolic acid was also included at a final concentration of 2 μM. Compounds were diluted in DMSO and further diluted in assay buffer with a final DMSO concentration at 1%.

For O=C(O)CC[C@H]1CN(S(=O)(=O)c2cccc(C(F)(F)F)c2)c2cc(-c3ccc(Cl)cc3)ccc2O1 [Compound 2B, (S)-3-(6-(4-chlorophenyl)-4-((3-(trifluoromethyl)phenyl)-sulfonyl)-3,4-dihydro-2H-benzo[b][1,4]oxazin-2-yl)propanoic acid], the EC50 was less than 500 nM and the “TR-FRET Assay Max Response” value was “** (The symbol “**” indicates a value in the range of greater than 90 to 150)”.
In the case of O=C(O)CC[C@@H]1CN(S(=O)(=O)c2cccc(C(F)(F)F)c2)c2cc(-c3cc(F)ccc3F)ccc2O1 [Compound 2BP, (R)-3-(6-(2,5-difluorophenyl)-4-((3-(trifluoromethyl)phenyl)-sulfonyl)-3,4-dihydro-2H-benzo[b][1,4]oxazin-2-yl)propanoic acid], the EC50 is reported as less than 500 nM and the “TR-FRET Assay Max Response” value is reported as “*** (The symbol “***” indicates a value in the range of greater than 150 to 200)”.
With O=C(O)CC[C@H]1CN(S(=O)(=O)c2cccc(C(F)(F)F)c2)c2cc(-c3ccc(F)cc3F)ccc2O1 [Compound 2D, (S)-3-(6-(2,4-difluorophenyl)-4-((3-(trifluoromethyl)phenyl)-sulfonyl)-3,4-dihydro-2H-benzo[b][1,4]oxazin-2-yl)propanoic acid] the EC50 was less than 500 nM and the “TR-FRET Assay Max Response” value was “** (The symbol “**” indicates a value in the range of greater than 90 to 150)”.
For O=C(O)CC[C@H]1CN(S(=O)(=O)c2cccc(C(F)(F)F)c2)c2cc(-c3ccc(F)c(F)c3)ccc2O1 [Compound 2F, (S)-3-(6-(3,4-difluorophenyl)-4-((3-(trifluoromethyl)phenyl)-sulfonyl)-3,4-dihydro-2H-benzo[b][1,4]oxazin-2-yl)propanoic acid], the EC50 was less than 500 nM and the “TR-FRET Assay Max Response” value was “** (The symbol “**” indicates a value in the range of greater than 90 to 150)”.
For O=C(O)CC[C@H]1CN(S(=O)(=O)c2cccc(C(F)(F)F)c2)c2cc(-c3cccc(-c4ccccc4)n3)ccc2O1 [Compound 4AI, (S)-3-(6-(6-phenylpyridin-2-yl)-4-((3-(trifluoromethyl)-phenyl)sulfonyl)-3,4-dihydro-2H-benzo[b][1,4]oxazin-2-yl)propanoic acid], the EC50 was less than 500 nM and the “TR-FRET Assay Max Response” value was “** (The symbol “**” indicates a value in the range of greater than 90 to 150)”.
In the case of CN(C)c1cc(C(F)(F)F)cc(-c2ccc3c(c2)N(S(=O)(=O)c2cccc(C(F)(F)F)c2)C[C@H](CCC(=O)O)O3)n1 [Compound 4AT, (S)-3-(6-(6-(dimethylamino)-4-(trifluoromethyl)pyridin-2-yl)-4-((3-(trifluoromethyl)phenyl)-sulfonyl)-3,4-dihydro-2H-benzo[b][1,4]oxazin-2-yl)propanoic acid], the EC50 is reported as 500 to 5000 nM and the “TR-FRET Assay Max Response” value is reported as “*** (The symbol “***” indicates a value in the range of greater than 150 to 200)”.
With CN(C)c1nccc(-c2ccc3c(c2)N(S(=O)(=O)c2cccc(C(F)(F)F)c2)C[C@H](CCC(=O)O)O3)n1 [Compound 4AV, (S)-3-(6-(2-(dimethylamino)-pyrimidin-4-yl)-4-((3-(trifluoromethyl)phenyl)-sulfonyl)-3,4-dihydro-2H-benzo[b][1,4]oxazin-2-yl)propanoic acid] the EC50 was 500 to 5000 nM and the “TR-FRET Assay Max Response” value was “*** (The symbol “***” indicates a value in the range of greater than 150 to 200)”.
With O=C(O)CC[C@H]1CN(S(=O)(=O)c2cccc(C(F)(F)F)c2)c2cc(-c3ccnc(Cl)n3)ccc2O1 [Compound 4AX, (S)-3-(6-(2-chloropyrimidin-4-yl)-4-((3-(trifluoromethyl)-phenyl)sulfonyl)-3,4-dihydro-2H-benzo[b][1,4]oxazin-2-yl)propanoic acid] the EC50 was 500 to 5000 nM and the “TR-FRET Assay Max Response” value was “** (The symbol “**” indicates a value in the range of greater than 90 to 150)”.
O=C(O)CC[C@H]1CN(S(=O)(=O)c2cccc(C(F)(F)F)c2)c2cc(-c3cccc(C(F)(F)F)n3)c(Cl)cc2O1 [Compound 22F, (S)-3-(7-chloro-4-((3-(trifluoromethyl)phenyl)sulfonyl)-6-(6-(trifluoromethyl)pyridin-2-yl)-3,4-dihydro-2H-benzo[b][1,4]-oxazin-2-yl)propanoic acid] showed an EC50 greater than 10000 nM.
For O=C(O)CC[C@H]1CN(S(=O)(=O)c2cccc(C(F)(F)F)c2)c2cc(-c3cc(F)cc(OC(F)F)c3)cc(F)c2O1 [Compound 22M, (S)-3-(6-(3-(difluoromethoxy)-5-fluorophenyl)-8-fluoro-4-((3-(trifluoromethyl)phenyl)sulfonyl)-3,4-dihydro-2H-benzo[b][1,4]-oxazin-2-yl)propanoic acid], the EC50 was less than 500 nM and the “TR-FRET Assay Max Response” value was “*** (The symbol “***” indicates a value in the range of greater than 150 to 200)”.
O=C(O)CC[C@H]1CN(S(=O)(=O)c2cccc(C(F)(F)F)c2)c2cc(-c3cc(F)cc(OC(F)F)c3)c(Cl)cc2O1 [Compound 22N, (S)-3-(7-chloro-6-(3-(difluoro-methoxy)-5-fluorophenyl)-4-((3-(trifluoromethyl)phenyl)sulfonyl)-3,4-dihydro-2H-benzo[b][1,4]-oxazin-2-yl)propanoic acid] gave an EC50 of less than 500 nM.
For O=C(O)CNC(=O)CC[C@H]1CN(S(=O)(=O)c2cccc(C(F)(F)F)c2)c2cc(-c3cccc(F)c3F)ccc2O1 [Compound 23O, (S)-(3-(6-(2,3-difluorophenyl)-4-((3-(trifluoromethyl)-phenyl)sulfonyl)-3,4-dihydro-2H-benzo[b][1,4]oxazin-2-yl)propanoyl)glycine], the EC50 was less than 500 nM and the “TR-FRET Assay Max Response” value was “**** (The symbol “****” indicates a value greater than 200)”.
In the case of O=C(NCC[C@H]1CN(S(=O)(=O)c2cccc(C(F)(F)F)c2)c2cc(-c3cc(F)ccc3F)ccc2O1)NC[C@H](O)C(=O)O [Compound 23Z, (S)-3-(3-(2-((S)-6-(2,5-difluorophenyl)-4-((3-(trifluoro-methyl)phenyl)sulfonyl)-3,4-dihydro-2H-benzo[b][1,4]oxazin-2-yl)ethyl)ureido)-2-hydroxypropanoic acid], the EC50 is reported as less than 500 nM and the “TR-FRET Assay Max Response” value is reported as “**** (The symbol “****” indicates a value greater than 200)”.
Cc1coc(-c2ccc3c(c2)N(S(=O)(=O)c2cccc(C(F)(F)F)c2)C[C@H](CCC(=O)O)O3)n1 [Compound 25, (S)-3-(6-(4-methyloxazol-2-yl)-4-((3-(trifluoromethyl)phenyl)sulfonyl)-3,4-dihydro-2H-benzo[b][1,4]oxazin-2-yl)propanoic acid] was tested, and the EC50 was 500 to 5000 nM and the “TR-FRET Assay Max Response” value was “** (The symbol “**” indicates a value in the range of greater than 90 to 150)”.
For CC(C)(C(=O)NC[C@H]1CN(S(=O)(=O)c2cccc(C(F)(F)F)c2)c2cc(-c3cccc(F)c3Cl)ccc2O1)C(F)(F)F [Compound 30BJ, (S)-N-((6-(2-chloro-3-fluoro-phenyl)-4-((3-(trifluoromethyl)-phenyl)sulfonyl)-3,4-dihydro-2H-benzo[b][1,4]oxazin-2-yl)methyl)-3,3,3-trifluoro-2,2-dimethylpropanamide], the EC50 was 500 to 5000 nM and the “TR-FRET Assay Max Response” value was “*** (The symbol “***” indicates a value in the range of greater than 150 to 200)”.
With NS(=O)(=O)CCC(=O)NC[C@H]1CN(S(=O)(=O)c2cccc(C(F)(F)F)c2)c2cc(-c3cccc(F)c3Cl)ccc2O1 [Compound 30BK, (S)-N-((6-(2-chloro-3-fluoro-phenyl)-4-((3-(trifluoromethyl)-phenyl)sulfonyl)-3,4-dihydro-2H-benzo[b][1,4]oxazin-2-yl)methyl)-3-sulfamoylpropanamide] the EC50 was less than 500 nM and the “TR-FRET Assay Max Response” value was “*** (The symbol “***” indicates a value in the range of greater than 150 to 200)”.
With N#CC1(C(=O)NC[C@H]2CN(S(=O)(=O)c3cccc(C(F)(F)F)c3)c3cc(-c4cccc(F)c4Cl)ccc3O2)CC1 [Compound 30BL, (S)-N-((6-(2-chloro-3-fluoro-phenyl)-4-((3-(trifluoromethyl)-phenyl)sulfonyl)-3,4-dihydro-2H-benzo[b][1,4]oxazin-2-yl)methyl)-1-cyanocyclo-propane-1-carboxamide] the EC50 was less than 500 nM and the “TR-FRET Assay Max Response” value was “*** (The symbol “***” indicates a value in the range of greater than 150 to 200)”.
O=C(NC[C@H]1CN(S(=O)(=O)c2cccc(C(F)(F)F)c2)c2cc(-c3cccc(F)c3Cl)ccc2O1)C1(F)CC1 [Compound 30BM, (S)-N-((6-(2-chloro-3-fluoro-phenyl)-4-((3-(trifluoromethyl)-phenyl)sulfonyl)-3,4-dihydro-2H-benzo[b][1,4]oxazin-2-yl)methyl)-1-fluorocyclo-propane-1-carboxamide] was tested, and the EC50 was less than 500 nM and the “TR-FRET Assay Max Response” value was “*** (The symbol “***” indicates a value in the range of greater than 150 to 200)”.
CC(C)(C(=O)NC[C@H]1CN(S(=O)(=O)c2cccc(C(F)(F)F)c2)c2cc(-c3cc(F)cc(OC(F)F)c3)ccc2O1)C(F)(F)F [Compound 30CY, (S)-N-((6-(3-(difluoromethoxy)-5-fluorophenyl)-4-((3-(trifluoro-methyl)phenyl)sulfonyl)-3,4-dihydro-2H-benzo[b][1,4]-oxazin-2-yl)methyl)-3,3,3-trifluoro-2,2-dimethyl-propanamide] was tested, and the EC50 was less than 500 nM and the “TR-FRET Assay Max Response” value was “** (The symbol “**” indicates a value in the range of greater than 90 to 150)”.
